Consider 17 compounds from ChEMBL document CHEMBL5291721, “A preclinical secondary pharmacology resource illuminates target-adverse drug reaction associations of marketed drugs” (Nat Commun, 2023).

Some results are limits rather than exact numbers.

One assay deals with Prothrombin (Homo sapiens, UniProt P00734). Type of assay: functional.
Assay [1] deals with T1, Gastrin/cholecystokinin type B receptor (Homo sapiens, UniProt P32239).
T1 sequence (P32239 whole entry): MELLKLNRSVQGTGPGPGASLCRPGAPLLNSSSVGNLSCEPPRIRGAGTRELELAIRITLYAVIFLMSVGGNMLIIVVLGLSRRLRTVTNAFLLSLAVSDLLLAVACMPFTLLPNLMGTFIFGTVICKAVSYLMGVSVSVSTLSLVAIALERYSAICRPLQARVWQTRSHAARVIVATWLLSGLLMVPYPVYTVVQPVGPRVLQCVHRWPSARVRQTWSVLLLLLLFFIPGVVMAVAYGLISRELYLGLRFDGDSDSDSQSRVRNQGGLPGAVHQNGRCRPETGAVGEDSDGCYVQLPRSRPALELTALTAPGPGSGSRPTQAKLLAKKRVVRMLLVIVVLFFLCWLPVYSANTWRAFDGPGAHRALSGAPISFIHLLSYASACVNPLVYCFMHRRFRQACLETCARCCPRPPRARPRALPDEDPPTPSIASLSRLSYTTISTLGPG

For another assay, the target named is T2, Endothelin-1 receptor (Homo sapiens, UniProt P25101).
T2 sequence (P25101 whole entry): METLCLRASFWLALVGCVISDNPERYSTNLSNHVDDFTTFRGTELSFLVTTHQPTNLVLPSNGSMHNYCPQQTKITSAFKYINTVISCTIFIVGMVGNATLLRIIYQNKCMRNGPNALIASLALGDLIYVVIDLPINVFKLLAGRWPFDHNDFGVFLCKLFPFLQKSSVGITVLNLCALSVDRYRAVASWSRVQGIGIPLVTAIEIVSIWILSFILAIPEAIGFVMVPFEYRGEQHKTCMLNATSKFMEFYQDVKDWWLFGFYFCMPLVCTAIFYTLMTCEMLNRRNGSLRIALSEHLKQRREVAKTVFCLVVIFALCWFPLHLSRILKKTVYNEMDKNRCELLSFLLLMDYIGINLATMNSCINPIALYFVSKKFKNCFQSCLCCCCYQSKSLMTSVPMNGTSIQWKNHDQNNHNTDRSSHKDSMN

Assay [2] concerns the target Vascular endothelial growth factor receptor 2 (Homo sapiens, UniProt P35968). The assay is classed as functional.
Assay [3] concerns the target Sodium-dependent dopamine transporter (Homo sapiens, UniProt Q01959).
Assay [4] concerns the target Prostaglandin G/H synthase 1 (Homo sapiens, UniProt P23219). Type of assay: functional.
In assay [5] the target is 3',5'-cyclic-AMP phosphodiesterase 4A (Homo sapiens, UniProt P27815). The assay is classed as functional.
A further assay concerns the target T3, Thromboxane A2 receptor (Homo sapiens, UniProt P21731).
T3 sequence (P21731 whole entry): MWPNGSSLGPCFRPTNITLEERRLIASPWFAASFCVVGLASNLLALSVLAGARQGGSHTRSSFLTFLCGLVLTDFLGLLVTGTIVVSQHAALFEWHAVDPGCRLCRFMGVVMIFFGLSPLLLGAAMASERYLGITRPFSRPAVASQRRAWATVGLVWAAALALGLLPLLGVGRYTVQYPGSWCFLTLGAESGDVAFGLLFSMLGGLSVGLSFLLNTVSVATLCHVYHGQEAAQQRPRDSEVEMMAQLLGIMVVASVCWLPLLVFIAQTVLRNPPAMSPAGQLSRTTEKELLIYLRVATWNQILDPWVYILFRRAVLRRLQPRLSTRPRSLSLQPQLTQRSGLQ

The target of assay [6] is T4, 5-hydroxytryptamine receptor 1A (Homo sapiens, UniProt P08908).
T4 sequence (P08908 whole entry): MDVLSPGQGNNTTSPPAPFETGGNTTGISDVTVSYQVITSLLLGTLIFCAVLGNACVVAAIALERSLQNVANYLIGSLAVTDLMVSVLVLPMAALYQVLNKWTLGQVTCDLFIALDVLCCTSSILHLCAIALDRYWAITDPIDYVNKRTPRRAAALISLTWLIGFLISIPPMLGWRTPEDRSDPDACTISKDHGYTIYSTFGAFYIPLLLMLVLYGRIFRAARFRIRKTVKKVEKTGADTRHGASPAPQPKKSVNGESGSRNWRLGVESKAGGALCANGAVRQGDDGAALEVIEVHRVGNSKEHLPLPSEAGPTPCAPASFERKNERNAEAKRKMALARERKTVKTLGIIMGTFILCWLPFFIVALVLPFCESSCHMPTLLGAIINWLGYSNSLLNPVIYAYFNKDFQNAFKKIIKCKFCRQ

For assay [7], the target named is T5, Muscarinic acetylcholine receptor M1 (Homo sapiens, UniProt P11229).
T5 sequence (P11229 whole entry): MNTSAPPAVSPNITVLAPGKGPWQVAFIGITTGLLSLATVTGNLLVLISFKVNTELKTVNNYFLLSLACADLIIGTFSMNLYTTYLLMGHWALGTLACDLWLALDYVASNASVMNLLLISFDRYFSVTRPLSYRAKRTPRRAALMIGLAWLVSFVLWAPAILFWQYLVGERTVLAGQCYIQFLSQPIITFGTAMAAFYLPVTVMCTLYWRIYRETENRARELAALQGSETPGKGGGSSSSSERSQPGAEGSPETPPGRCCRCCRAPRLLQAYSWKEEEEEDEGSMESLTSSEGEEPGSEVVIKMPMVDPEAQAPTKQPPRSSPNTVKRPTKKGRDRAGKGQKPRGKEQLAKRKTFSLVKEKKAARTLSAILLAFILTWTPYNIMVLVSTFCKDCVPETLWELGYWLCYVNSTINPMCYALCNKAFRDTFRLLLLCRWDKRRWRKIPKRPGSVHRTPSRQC
Type of assay: functional, cell-based.
Also: assay procedure not described here.

Chain of Vascular endothelial growth factor receptor 2 (P35968 whole entry): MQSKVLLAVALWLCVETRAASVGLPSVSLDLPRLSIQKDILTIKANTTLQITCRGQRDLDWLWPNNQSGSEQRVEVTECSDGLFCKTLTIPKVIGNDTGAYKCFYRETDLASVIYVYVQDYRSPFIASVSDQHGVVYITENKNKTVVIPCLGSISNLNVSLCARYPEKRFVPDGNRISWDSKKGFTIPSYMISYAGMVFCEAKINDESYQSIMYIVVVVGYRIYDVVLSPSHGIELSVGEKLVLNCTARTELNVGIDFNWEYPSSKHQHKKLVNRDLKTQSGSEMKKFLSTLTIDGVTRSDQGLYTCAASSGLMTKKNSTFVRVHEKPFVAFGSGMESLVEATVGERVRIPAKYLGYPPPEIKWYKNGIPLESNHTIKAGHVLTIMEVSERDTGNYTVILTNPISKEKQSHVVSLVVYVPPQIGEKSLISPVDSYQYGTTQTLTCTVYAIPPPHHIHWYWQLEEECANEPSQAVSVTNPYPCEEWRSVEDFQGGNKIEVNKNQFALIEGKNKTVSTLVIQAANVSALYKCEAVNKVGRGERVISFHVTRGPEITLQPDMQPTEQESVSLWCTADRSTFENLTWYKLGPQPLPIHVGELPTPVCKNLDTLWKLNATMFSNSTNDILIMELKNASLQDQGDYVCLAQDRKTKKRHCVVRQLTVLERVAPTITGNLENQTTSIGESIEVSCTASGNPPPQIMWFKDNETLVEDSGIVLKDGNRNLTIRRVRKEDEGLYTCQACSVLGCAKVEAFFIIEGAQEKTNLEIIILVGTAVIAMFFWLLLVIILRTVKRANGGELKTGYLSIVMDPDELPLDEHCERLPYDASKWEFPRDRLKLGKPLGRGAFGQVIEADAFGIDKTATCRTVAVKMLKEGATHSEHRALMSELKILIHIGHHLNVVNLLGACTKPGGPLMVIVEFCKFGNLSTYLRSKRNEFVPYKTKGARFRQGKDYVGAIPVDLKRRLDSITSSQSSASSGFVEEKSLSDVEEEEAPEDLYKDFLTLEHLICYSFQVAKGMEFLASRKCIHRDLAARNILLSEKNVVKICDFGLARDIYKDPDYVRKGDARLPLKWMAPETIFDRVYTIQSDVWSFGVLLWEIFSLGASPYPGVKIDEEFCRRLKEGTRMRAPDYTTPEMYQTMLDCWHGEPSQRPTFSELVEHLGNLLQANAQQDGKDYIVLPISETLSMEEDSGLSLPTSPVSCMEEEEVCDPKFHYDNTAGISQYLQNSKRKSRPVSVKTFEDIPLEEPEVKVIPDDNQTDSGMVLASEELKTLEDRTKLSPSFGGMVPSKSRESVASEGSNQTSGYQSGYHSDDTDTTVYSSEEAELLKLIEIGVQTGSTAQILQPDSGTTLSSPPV
Chain of 3',5'-cyclic-AMP phosphodiesterase 4A (P27815 whole entry): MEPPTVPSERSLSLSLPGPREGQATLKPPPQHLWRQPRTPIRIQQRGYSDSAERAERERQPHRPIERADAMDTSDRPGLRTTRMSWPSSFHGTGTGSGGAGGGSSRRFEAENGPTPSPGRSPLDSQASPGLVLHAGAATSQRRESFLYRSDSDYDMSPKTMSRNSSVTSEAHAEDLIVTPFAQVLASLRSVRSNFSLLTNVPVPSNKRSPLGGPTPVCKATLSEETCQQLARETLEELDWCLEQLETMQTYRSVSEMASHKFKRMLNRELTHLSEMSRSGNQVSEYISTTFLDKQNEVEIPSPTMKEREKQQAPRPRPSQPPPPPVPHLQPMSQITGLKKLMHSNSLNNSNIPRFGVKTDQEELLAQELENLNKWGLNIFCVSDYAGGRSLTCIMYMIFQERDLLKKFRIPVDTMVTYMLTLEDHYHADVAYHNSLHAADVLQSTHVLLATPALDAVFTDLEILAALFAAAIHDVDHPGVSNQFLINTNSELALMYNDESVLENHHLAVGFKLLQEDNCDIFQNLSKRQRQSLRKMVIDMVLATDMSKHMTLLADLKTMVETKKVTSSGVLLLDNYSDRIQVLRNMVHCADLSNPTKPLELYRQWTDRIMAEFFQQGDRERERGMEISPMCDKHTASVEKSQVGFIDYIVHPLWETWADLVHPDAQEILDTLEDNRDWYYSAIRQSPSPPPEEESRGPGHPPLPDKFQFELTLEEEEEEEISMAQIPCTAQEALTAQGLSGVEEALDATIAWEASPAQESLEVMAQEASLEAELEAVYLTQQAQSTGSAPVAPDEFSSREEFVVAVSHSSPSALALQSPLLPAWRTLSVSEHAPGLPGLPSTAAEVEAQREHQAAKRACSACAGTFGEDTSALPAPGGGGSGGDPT
Chain of Prostaglandin G/H synthase 1 (P23219 whole entry): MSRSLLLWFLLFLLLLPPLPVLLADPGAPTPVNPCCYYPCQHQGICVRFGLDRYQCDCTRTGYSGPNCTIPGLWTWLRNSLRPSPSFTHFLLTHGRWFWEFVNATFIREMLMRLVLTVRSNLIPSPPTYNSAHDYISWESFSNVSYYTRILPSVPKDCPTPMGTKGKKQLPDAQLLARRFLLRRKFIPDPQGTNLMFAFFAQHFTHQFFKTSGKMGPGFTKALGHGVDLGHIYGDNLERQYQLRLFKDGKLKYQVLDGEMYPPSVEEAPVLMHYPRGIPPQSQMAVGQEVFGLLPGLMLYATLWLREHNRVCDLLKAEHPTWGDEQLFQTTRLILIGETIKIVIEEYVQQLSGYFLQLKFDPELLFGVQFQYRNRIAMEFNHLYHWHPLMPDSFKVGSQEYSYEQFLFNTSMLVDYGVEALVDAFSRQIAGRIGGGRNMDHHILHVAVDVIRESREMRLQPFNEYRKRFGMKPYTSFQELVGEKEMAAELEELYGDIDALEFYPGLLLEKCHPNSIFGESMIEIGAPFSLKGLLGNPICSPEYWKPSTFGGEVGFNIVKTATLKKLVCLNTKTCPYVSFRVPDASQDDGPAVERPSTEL
Chain of Sodium-dependent dopamine transporter (Q01959 whole entry): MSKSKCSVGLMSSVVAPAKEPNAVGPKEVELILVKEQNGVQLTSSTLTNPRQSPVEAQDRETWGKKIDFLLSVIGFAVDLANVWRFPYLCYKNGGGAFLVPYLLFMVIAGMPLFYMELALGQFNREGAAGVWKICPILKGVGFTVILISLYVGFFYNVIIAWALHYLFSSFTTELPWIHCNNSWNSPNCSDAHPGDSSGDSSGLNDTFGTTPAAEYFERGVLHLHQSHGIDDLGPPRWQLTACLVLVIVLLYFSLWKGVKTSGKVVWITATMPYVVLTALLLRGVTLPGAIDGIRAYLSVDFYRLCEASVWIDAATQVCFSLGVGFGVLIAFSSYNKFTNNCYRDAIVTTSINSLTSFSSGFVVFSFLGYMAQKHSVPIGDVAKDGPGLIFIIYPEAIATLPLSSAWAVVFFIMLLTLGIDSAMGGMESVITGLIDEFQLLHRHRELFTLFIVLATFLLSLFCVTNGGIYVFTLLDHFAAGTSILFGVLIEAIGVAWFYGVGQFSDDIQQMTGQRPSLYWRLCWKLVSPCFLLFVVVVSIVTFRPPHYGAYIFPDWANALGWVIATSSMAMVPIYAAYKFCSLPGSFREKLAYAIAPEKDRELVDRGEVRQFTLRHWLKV

As for `C=CCc1ccccc1OCC(O)CNC(C)C` (stereo unspecified) [ALPRENOLOL], the AC50 on Prothrombin was > 0.3 µM; in [1], > 30 µM; on Endothelin-1 receptor, > 30 µM; in [2] it was > 0.3 µM; in assay [3], > 0.3 µM; in assay [4], > 0.3 µM. Further, the AC50 was > 0.3 µM in [5], > 30 µM on Thromboxane A2 receptor, 0.0146 µM in [6] and > 0.3 µM in assay [7].
On to `Oc1c(Cl)cc(Cl)c2cccnc12` [CHLOROXINE], for which the AC50 on Prothrombin is > 30 µM; in assay [2], > 30 µM; in assay [3], > 30 µM; in [4], > 30 µM; in [5], > 30 µM; in assay [6], 17.2 µM. Besides, the AC50 in assay [7] was > 30 µM.
For `CN(C)[C@@H](c1cccc(O)c1)[C@H]1CCCC[C@H]1O` [CIRAMADOL], the AC50 is > 30 µM on Prothrombin; 9.31 µM in assay [2]; 29.6 µM in assay [3]; > 10 µM in assay [4]; > 30 µM in [5]; > 30 µM in assay [6]. The AC50 in assay [7] was > 30 µM.
For the compound `CN(C)CCN1C(=O)c2ccccc2N(C)c2ccccc21` [DIBENZEPIN], the AC50 on Prothrombin was > 30 µM; in assay [2] it was > 30 µM; in [3], > 30 µM; in [4] it was > 30 µM; in assay [5] it was > 30 µM; in [6], 0.306 µM. The AC50 in [7] is > 30 µM.
Take `N[C@H](C(=O)O)[C@H](O)c1ccc(O)c(O)c1` [DROXIDOPA]: the AC50 on Prothrombin was > 30 µM; in [2], > 30 µM; in [3], > 30 µM; in assay [4], 17.8 µM; in assay [5] it was > 30 µM; in assay [6], > 30 µM. Also, the AC50 in [7] is > 30 µM.
Regarding `O=C(O)c1cc(O)ccc1O` [GENTISIC ACID], the AC50 (at Prothrombin; in assay [2]; in assay [3]; in [4]; in assay [5]; in [6]) was > 30 µM each time. Moreover, the AC50 in [7] was > 30 µM.
For `O=C(OCC(O)CO)c1ccccc1Nc1ccnc2cc(Cl)ccc12` (stereo unspecified) [GLAFENINE], the AC50 at Prothrombin is > 30 µM; at Endothelin-1 receptor it was > 30 µM; in assay [2], 6.96 µM; in [3], > 30 µM; in [4], 4.63 µM; in [5], 8.3 µM. The AC50 was > 30 µM in assay [6] and 7.51 µM in assay [7].
Consider `CC(C)Nc1ncccn1` [ISAXONINE], for which the AC50 (on Prothrombin; in assay [2]; in assay [3]; in assay [4]; in [5]; in [6]) was > 30 µM each time. In addition, the AC50 in [7] is > 30 µM.
Take `OCCN1C[C@H](O)[C@@H](O)[C@H](O)[C@H]1CO` [MIGLITOL]: the AC50 (on Prothrombin; in assay [2]; in assay [3]; in assay [4]; in assay [5]; in [6]) was > 30 µM throughout. Besides, the AC50 in assay [7] is > 30 µM.
In the case of `CC(=O)N[C@@H]1[C@@H](O)[C@H](O)[C@@H](CO)O[C@H]1O` [N-ACETYLGLUCOSAMINE], the half-maximal activity concentration (AC50) (on Prothrombin; in assay [2]; in [3]; in assay [4]; in [5]; in [6]) was > 30 µM throughout. Further, the AC50 in [7] is > 30 µM.
As to `O=C(CCNNC(=O)c1ccncc1)NCc1ccccc1` [NIALAMIDE], the AC50 on Prothrombin is > 30 µM; in assay [2], > 30 µM; in assay [3], > 30 µM; in assay [4], 1.65 µM; in assay [5], > 30 µM; in assay [6], > 30 µM. The AC50 in [7] was > 30 µM.
Turning to `CC[C@H]1[C@@H](O)[C@@H]2[C@H](CC[C@]3(C)[C@@H]([C@H](C)CCC(=O)O)CC[C@@H]23)[C@@]2(C)CC[C@@H](O)C[C@@H]12` [OBETICHOLIC ACID], the AC50 (at Prothrombin; in [1]; on Endothelin-1 receptor; in assay [2]; in [3]; in assay [4]) was > 30 µM in each case. Further, the AC50 (in assay [5]; at Thromboxane A2 receptor; in [6]; in assay [7]) was > 30 µM each time.
On to `CC[N+]1(C)[C@@H]2CC(OC(=O)[C@H](CO)c3ccccc3)C[C@H]1[C@@H]1O[C@@H]12` (stereo partly specified) [OXITROPIUM], for which the half-maximal activity concentration (AC50) (on Prothrombin; in assay [2]; in assay [3]; in assay [4]; in [5]; in assay [6]) was > 30 µM each time. Also, the AC50 in [7] was determined as 0.003 µM.
For `CC(C)(C)NC[C@H](O)COc1ccccc1C1CCCC1` [PENBUTOLOL], the AC50 at Prothrombin was > 30 µM; in assay [2], > 30 µM; in assay [3], > 30 µM; in assay [4], 26.4 µM; in assay [5], > 10 µM; in assay [6], 0.0036 µM. This compound returned an AC50 in assay [7] of 13.5 µM.
For `CN(C)S(=O)(=O)c1ccc2c(c1)N(CCCN1CCC(CCO)CC1)c1ccccc1S2` [PIPOTIAZINE], the AC50 was > 30 µM at Prothrombin; > 30 µM in assay [2]; 8.9 µM in assay [3]; > 30 µM in [4]; > 30 µM in [5]; 0.32 µM in [6]. This compound gave an AC50 in [7] of 7.84 µM.
Turning to `C=C[C@H]1C[N@@]2CC[C@H]1C[C@H]2[C@H](O)c1ccnc2ccc(OC)cc12` [QUININE], the AC50 (on Prothrombin; in [2]; in [3]; in [4]; in assay [5]; in [6]) was > 30 µM each time. Moreover, the AC50 in assay [7] was > 30 µM.
`CCOC(=O)[C@H](CCc1ccccc1)N[C@@H](C)C(=O)N1[C@H](C(=O)O)C[C@H]2CCCC[C@@H]21` [TRANDOLAPRIL]: the AC50 (on Prothrombin; in [2]; in [3]; in assay [4]; in [5]; in assay [6]) was > 30 µM in each case. Further, the AC50 in assay [7] is > 30 µM.

For orientation: AC50 means the concentration giving half of the maximal activity seen.
